US11084799B2, “Polymorph of benzamide compound and preparation method and applications thereof” (SHENYANG SINOCHEM AGROCHEMICALS R&D CO., LTD., priority 2016, dated 2021)
Entries after “also recorded” stand apart in the source; their conditions may differ.

Experiments:
[1] = Pourability of 10% water suspending agent; type: physicochemical
From the text: (§1) The formulation includes the following composition: 10 parts of polymorph A of Compound 1 or polymorph B of Compound 1 obtained in above examples, 3 parts of sodium naphthalenesulfonate formaldehyde condensate, 3 parts of sodium salt of alkyl naphthalene sulfonic acid polycondensate, 0.1 part of white carbon black, 0.1 part of xanthan gum, 2 parts of pesticide emulsifier 0201B, 5 parts of glycol, 0.2 part of WJX-1 and water which is used to complement up to 100 parts by weight were successively added to a mixing tank for mixing. After conducting coarse grinding and homogenization through high shear, the mixture was grinded in a sand mill and detected the particle size of sanding materials through a sedimentograph. After the particle size meeting the standard requirements, the mixture was filtered to obtain 10% water suspending agent of polymorph A of Compound 1 or polymorph B of Compound 1.

[2] = Heat storage (54 ± 2° C.) of 10% water suspending agent; type: physicochemical
From the text: as §1

[3] = Formulation sample (10% water suspending agent) kept at normal temperatures; type: physicochemical
From the text: as §1

[4] = Particle size distribution of 10% water suspending agent; type: physicochemical
From the text: as §1

[5] = type: physicochemical
From the text: In the present invention, the slurry of the polymorph B of Compound 1 is heated in the presence of the solvent to convert into the polymorph A of Compound 1. The solvent is selected from the alcohol solvent and/or water. The alcohol solvent is selected from methanol, ethanol, n-propanol, isopropanol, n-butanol and n-pentanol. The adopted solvent can well convert the polymorph B into the polymorph A. In addition, the water as the solvent is well used to convert the polymorph B into the polymorph A. Furthermore, in the conversion process, at a temperature not more than 100° C., almost 100% conversion is completed at high yield within proper time. In the selection of the solvent, the water is selected to effectively reduce cost compared with the organic solvent. […] As an alternative, if the polymorph A with high concentration is in the water, then the polymorph A can be separated through evaporation of the water.

[6] = Insecticidal activity (pharmacodynamic stability), polymorph A versus polymorph B; conditions: compared with polymorph B
From the text: (§2) The polymorph A also presents better performance than the compound 1 prepared by the method (example 5) in the patent WO02010003350A1 in the aspect of the physical properties of the formulation.

[7] = Hygroscopicity on exposure to changing air humidity; type: physicochemical; conditions: exposed to changing air humidity
From the text: (§3) The advantages of the polymorph A in aspects such as chemical stability, filterability, solubility, hygroscopicity, melting point, solid density and flowability can have a significant impact on the developments of the production method and a formulation and on the quality and efficacy of a plant treating agent. […] The stability is favorable for determination of consistency of Compound 1. These features enable the polymorph A of Compound 1 to be well suitable for preparing a long effective and stable solid formulation so that the polymorph A has stable content of active component.

[8] = Crystal form stability during long-term storage; type: physicochemical
From the text: as §3

[9] = Suspensibility in processing of the formulation; type: physicochemical; conditions: compared with polymorph B
From the text: as §2

[10] = Dispersibility of 10% water suspending agent; type: physicochemical; conditions: after normal temperature for 2 years and heat storage (54 ± 2° C./14 d)
From the text: as §1

## CNC(=O)c1cc(Cl)cc(Cl)c1NC(=O)c1cc(Br)nn1-c1ncc(Cl)cc1Cl [Compound 1 Prepared by the Method in WO2010003350A1] [3-bromo-N-[2,4-dichloro-6-[(methylamino)carbonyl]phenyl]-1-(3,5-dichloro-2-pyridinyl)-1H-pyrazole-5-carboxamide, reference compound]
[1]; 10% water suspending agent
  Pourability: flow / flowability of the formulation sample: suspending agent has poor
  Pourability: residues after washed: unqualified.
[2]; suspending agent, observed after heat storage for 3 days
  Heat storage (54 ± 2° C.): state of the formulation sample: solidified and could not shake.
[3]; suspending agent, after kept for 1 week
  Kept at normal temperatures: flowability of the formulation sample: suspending agent has poor
[4]; suspending agent, no storage time stated
  Particle size distribution: distribution is wide.

## CNC(=O)c1cc(Cl)cc(Cl)c1NC(=O)c1cc(Br)nn1-c1ncc(Cl)cc1Cl [Polymorph A, 3-bromo-N-[2,4-dichloro-6-[(methylamino)carbonyl]phenyl]-1-(3,5-dichloro-2-pyridinyl)-1H-pyrazole-5-carboxamide]
[5]
  Solubility in the water: very low solubility
[6]
  Insecticidal activity: better insecticidal activity
[7]
  Hygroscopicity: does not present obvious hygroscopicity
[1]; 10% water suspending agent
  Pourability (overall verdict): qualified.
  Pourability: flow / flowability of the formulation sample: good flowability; after
  Pourability: residues after washed: ≤ 0.5%; the pourability is
[1]; in the processing of the formulation, compared with polymorph B
  Pourability: better pourability
[2]; 10% water suspending agent, after kept for 14 days at 54 ± 2° C.
  Heat storage (54 ± 2° C.): flowability of the formulation sample: agent has good flowability
[3]; 10% water suspending agent, after kept for two years
  Kept at normal temperatures: flowability of the formulation sample: suspending agent has good
[3]; 10% water suspending agent, after kept for two years, printed as almost unchanged
  Kept at normal temperatures: viscosity of the formulation sample: unchanged viscosity.
[8]
  Conversion into other crystal forms: does not convert into other crystal forms; also recorded: may not be converted into other crystal forms
  Stability: excellent stability
[9]
  Suspensibility: better suspensibility
[4]; 10% water suspending agent, after normal temperature for 2 years and heat storage (54 ± 2° C./14 d), printed as almost unchanged
  Particle size distribution: unchanged.
[10]
  Flowability (Dispersibility line): good dispersibility and good; also recorded: good flowability

## CNC(=O)c1cc(Cl)cc(Cl)c1NC(=O)c1cc(Br)nn1-c1ncc(Cl)cc1Cl [Polymorph B, 3-bromo-N-[2,4-dichloro-6-[(methylamino)carbonyl]phenyl]-1-(3,5-dichloro-2-pyridinyl)-1H-pyrazole-5-carboxamide]
[7]
  Hygroscopicity: obvious hygroscopicity
[1]; 10% water suspending agent
  Pourability: flow / flowability of the formulation sample: suspending agent does not
  Pourability: residues after washed: unqualified.
[2]; 10% water suspending agent, observed after heat storage for 1 h
  Heat storage (54 ± 2° C.): state of the formulation sample: solidified and could not shake.
[3]; 10% water suspending agent, observed after kept for 2 h
  Kept at normal temperatures: state of the formulation sample of the suspending agent: suspending agent is solidified
[4]; 10% water suspending agent, after kept at normal temperature for 1 week
  Particle size distribution: wide.
